According to US20100092499A1, “Alpha Thymosin Peptides as Cancer Vaccine Adjuvants” (SCICLONE PHARMACEUTICALS, INC., priority 2004, published 2010):

Assays:
[1] = system: thymocytes; settings: in vitro, dose-dependent; most pronounced on CD4CD8 double positive immature T cells; cited from earlier work
[2] = system: advanced breast cancer; assay: Clinical study of dendritic cell vaccine with or without thymalfasin in advanced breast cancer patients; type: in vivo, human; settings: for Patient Survival: 12 months; for Patient Survival / Patients with Tumor Reduction >50%: Group 3 non responders (LPI <20 U), 6 dendritic cell immunizations plus thymalfasin 1.6 mg twice a week, n=5; for Patients with Tumor Reduction >50%: Month 6
Description: Finally, the patients were immunized with the activated B cells hybrid itself, or a B cell hybrid cocultured with the patients' Dendritic Cells. This immunization was applied into a healthy lymph node once every three weeks. At the same time, the patients received 1.6 mg thymalfasin subcutaneously in the evenings (within between 7:00 pm and 9:00 pm) every 3 days during the time of immunization and for the following six months after the vaccination protocol was completed. This vaccination plan may, for example, involve from 4 to 10 doses, although these numbers are not exclusive.
Eighteen patients with advanced breast cancer resistant to chemo, radio and hormonotherapy were treated.
All the patients were female with Breast Cancer class 4 (with metastases).
The age rank was between 39 to 71 years.
The patients were treated with dendritic cell vaccine (according protocol: Annals of Oncology 2004-Vol 15. Supp. 3 Abs: iii40-Dendritic Cell Vaccine for Metastases Breast Cancer).
(§1) After the second vaccination course, the cellular immunization were measured, if this is >=20 ULPI (Linfocitic Proliferative Index) continued with the vaccination.
If the response was <20 ULPI, the patients were divided in 2 groups (randomized) of 5 and 7 patients group. The 5 patients group received Dendritic Cells
Vaccine plus thymalfasin (1.6 mg/tw during 6 months).
The clinical response and the survival data originated on total 18 metastatic breast patients treated were collected and, in order to perform a case serial statistic analysis we divided the total population in three different groups.
In Group 3 (n=5), patients received 6 dendritic cell immunizations with an LPI <20 U (non immune response) after the second vaccine and they received thymalfasin (1.6 mg/twice a week).

[3] = system: human CD34 stem cells; settings: added to human CD34 stem cells in culture; cited from earlier work
[4] = system: patient tumor cells; assay: Lymphocyte Proliferation Assay (LPI); type: cell-based, human; settings: five patients with LPI lower than 20 U after second DC immunization; thymalfasin 1.6 mg twice a week for 6 months plus 4 additional DC vaccine courses
Description: as §1
The patient immune response was measured using a well known in-vitro test named Lymphocyte Proliferation Assay. Briefly, mononuclear cells from the patient were purified and mixed with a suspension of the patient tumor cells at ratio 10:1 (3000 Lympho-monocytes vs 300 tumor cells). The mix cell suspension was seeded in a multi well plate and incubated at 37° C. After 96 hr the cells were harvested and counted by an automatic haemocytometer.

[5] = in vivo; cited from earlier work
[6] = system: IFNγ, IL-2, IL-3, IL-2 receptor; settings: following activation by mitogens or antigens; cited from earlier work

Substance: thymosin alpha 1 [thymalfasin]
- dexamethasone-induced apoptosis in thymocytes [1]: antagonizes
- Patient Survival [2]: 80%
- Patient Survival ([2]; listed as THYMALFASIN): 80%
- Patients with Tumor Reduction >50% [2]: 80%
- Patients with Tumor Reduction >50% ([2]; listed as THYMALFASIN): 80%
- Patient survival compared with immune responders and non immune responders who did not receive thymalfasin ([2]; advanced breast cancer patients, dendritic cell immunization): higher
- effective tumor response ([2]; five patients with LPI lower than 20 U, thymalfasin 1.6 mg twice a week for 6 months plus 4 additional DC vaccine courses): majority of the treated patients showed an effective tumor response
- thymopoiesis (number of total CD3 T cells, synthesis of IL-7) [3]: increased thymopoiesis
- Lymphocyte Proliferation Index (LPI) [4]: able to improve the LPI
- safety / side effects [5]: safe drug and its potential side effects are significantly low
- production of IFNγ, IL-2, IL-3 and expression of the IL-2 receptor [6]: can increase production
